Test results reported in patent US8921344B2, “Formulations and uses of 2-hydroxy-5-phenylazobenzoic acid derivatives” (Salix Pharmaceuticals, Inc., priority 2006, dated 2014).

Experiments:
[1] = cited from earlier work
clinical = experiment: clinical; design: species or system human; settings: in vivo; for AUClast / Tmax / AUC(0-t): male, po; for AUClast / Tmax / AUC(0-t) / AUClast ratio Treatment B/A / Cmax ratio Treatment B/A: human; for AUC(0-t): AUClast
Text: Study periods were separated by a minimum of 4 days. […] The standard pharmacokinetic parameters are shown for both dosing conditions in Table 1.
This delay is indicative of a slower transit of the drug through the GI tract.

[2] = cited from earlier work; remark: listed apart in the source
[3] = compared with 5-ASA; cited from earlier work

AUClast (clinical) [ng·h/mL] | AUC(0-t) (clinical) [ng·h/mL] | Change of systemic level as measured by Cmax (clinical) | Structure (SMILES) | AUClast ratio Treatment B/A (clinical) | Cmax ratio Treatment B/A (clinical) | also measured
302.0 ± 262.07 | 288 ± 158 | – | Nc1ccc(C(=O)NCCC(=O)O)cc1 [4-ABA, 4-amino benzoyl-β-alanine] | – | – | Tmax (clinical): 24.0 ± 8.51 h; Tmax (clinical; Tmax): 12.7 ± 9.46 h; Absorption of the released carrier component ([2]; released in the colon, largely eliminated in the feces): poorly absorbed
2096.4 ± 2577.31 | 2590 ± 1460 | significant decreases | Nc1ccc(O)c(C(=O)O)c1 [5-ASA, 5-aminosalicylic acid, reference compound] | – | – | Change of systemic level as measured by AUClast (clinical): significant decrease
– | – | significant decreases | CC(=O)Nc1ccc(O)c(C(=O)O)c1 [N-Ac-5-ASA, N-acetyl-5-ASA] | 0.819 | 0.639 | Anti-inflammatory activity in the colon [3]: lower anti-inflammatory activity; Part of the oral dose measured in the blood / systemically absorbed ([2]; after oral balsalazide): ~12 % of the oral dose

The remaining lines, values behind:

Structure (SMILES) | AUClast (clinical) [ng·h/mL] | AUC(0-t) (clinical) [ng·h/mL] | Change of systemic level as measured by Cmax (clinical) | AUClast ratio Treatment B/A (clinical) | Cmax ratio Treatment B/A (clinical) | also measured
O=C(O)CCNC(=O)c1ccc(/N=N/c2ccc(O)c(C(=O)O)c2)cc1 [Disodium balsalazide] | – | – | – | – | – | Water solubility [1]: highly water-soluble
O=C(O)CCNC(=O)c1ccc(/N=N/c2ccc(O)c(C(=O)O)c2)cc1 [Balsalazide, reference compound] | – | – | – | 1.146 | 0.791 | Part of the prodrug that reaches the colon ([2]; taken orally): 99%
